Measurements: BigSolDB 2.1

## OC[C@H]1O[C@H](O[C@H]2O[C@H](CO)[C@@H](O)[C@H](O)[C@H]2O)[C@H](O)[C@@H](O)[C@@H]1O
In ethanol, 288.15 K
  solubility (mole fraction): 0.000652
In ethanol, 293.15 K
  solubility (mole fraction): 0.000701
In ethanol, 298.15 K
  solubility (mole fraction): 0.000778
In ethanol, 303.15 K
  solubility (mole fraction): 0.000852
In ethanol, 308.15 K
  solubility (mole fraction): 0.000905
In ethanol, 313.15 K
  solubility (mole fraction): 0.000989
In ethanol, 318.15 K
  solubility (mole fraction): 0.00108
In water, 288.15 K
  solubility (mole fraction): 0.0344
In water, 293.15 K
  solubility (mole fraction): 0.0381
In water, 298.15 K
  solubility (mole fraction): 0.0437
In water, 303.15 K
  solubility (mole fraction): 0.0545
In water, 308.15 K
  solubility (mole fraction): 0.0636
In water, 313.15 K
  solubility (mole fraction): 0.0683
In water, 318.15 K
  solubility (mole fraction): 0.114
